Where “and” joins values, the source holds several entries; their conditions need not be identical. Equal entries are not always repeated.
Assays:
Assay type in all cases: cell-based, human
[1] = system: NZM11 (BRAF V600E) melanoma cells; assay: Time course of uptake by FACS (Example 5); settings: 200 nM
Protocol: FIG. 5A: Time course of uptake for 124, 125, 131, 132 conjugate compounds. Tests were performed using 200 nM each conjugate and 5, 30, or 60 minute incubation with melanoma cell line NZM11 (BRAF V600E mutant metastatic melanoma). Mean fluorescent intensities (MFI), n=300 mean±SD. The cells were sorted by FACS.
FIG. 5B: Time course of uptake for 124 and 3-azido BODIPY FL. Tests were performed using 200 nM each compound and 1 or 3 hour incubation with melanoma cell line NZM11 (BRAF V600E mutant metastatic melanoma). Mean fluorescent intensities (MFI). n=2000-3000 mean±SD. The cells were sorted by FACS.
Materials and methods: NZM11 cells were suspended at […] dispensed into 96 well plates and left to settle for 48 hours. 10 μL of 10 mM stock solutions in DMSO from the conjugates coupled to BODIPY were diluted with HBSS to afford 400 nM solution. Then, 400 nM compounds and DMSO solutions were diluted 1:1 with MEMα media to afford 200 nM solutions. After 48 hours the media was removed from the 96 well plates and 200 μL of 200 nM conjugates solutions dispensed to each well (in duplicate) and incubated for 5 minutes, 30 minutes and 60 minutes at 37 °C (for the first test) or 60 minutes and 3 hours (for the second test). After indicated incubation time, the media was removed and cells washed with PBS. 100 μL of TrypLE trypsin (ThermoFisher Scientific) were added to each well and incubated for 6.5 minutes at 37 °C after which, 100 μL of MEMα media were added and samples were sorted through FACS biosort. FACS results output represented the mean of the fluorescence intensities (in arbitrary units) measured for cells sorted in every sample. Uptake rate was calculated by the equation: Uptake rate=(MFI2−MFI1)/(T2−T1)
whereby: MFI=mean fluorescent intensities; T=time (at which time the sample was taken); Uptake rate units: fluorescence intensities units per minute.

[2] = system: HT29 (colorectal cancer cell line); assay: FACS uptake of BODIPY FL conjugates (Example 4); settings: 200 nM, 5 min
Protocol: FIG. 4A: Conjugate compounds coupled to BODIPY FL were tested for uptake using 200 nM each conjugate and 5 minute incubation with colorectal cancer cell line HT29. Mean fluorescent intensities (MFI). 1,000 cells were sorted by FACS.
Materials and methods: The HT-29 line was originally isolated from a primary tumour in 1964 from a person. This cell line is positive for expression of N-ras and overexpression of p53 antigen. The human colon adenocarcinoma cell line HT29, is not only used to study the biology of human colon cancers, but it is receiving special interest in studies focused on food digestion and bioavailability due to the ability to express characteristics of mature intestinal cells. The application of this cell line to transport studies of drugs and food compounds is illustrated, especially when the effect of the mucus layer is considered or used as co-culture in combination with Caco-2 cells. These cells have shown a high rate of glucose consumption and therefore, they require high glucose concentration in the medium. Verhoeck et al., 2015.
For these experiments, HT-29 or MEF cells were diluted on αMEM media (supplemented with 10% FBS+1% penicillin-streptomycin) to give a 250 cells/μL suspension of which 200 μL were aliquoted into each well of a 96 well plate followed by incubation for 24 hours. Next, 2 μL of 100 μM stock solutions in DMSO from the conjugates coupled to BODIPY were diluted with 998 μL of αMEM media to give a 200 nM solution. After 24 hour incubation, media was removed and 200 μL of 138 and pantothenic acid/pantothenic acid derivatives coupled to BODIPY 200 nM solutions were added and cells were incubated for 5 minutes at 37 °C. After 5 minutes, the compounds and DMSO solutions were removed and cells were washed with PBS. Then, 100 μL of TrypLE trypsin were added to each well and incubated for 5 minutes at 37 °C. After this time, 100 μL of DMEM media were added to the wells and samples were sorted through FACS biosort. The studies were completed in duplicated wells.

[3] = system: Jurkat cells; assay: FACS uptake of BODIPY FL conjugates in Jurkat cells (Example 3); settings: 200 nM
Protocol: FIG. 3B: Conjugate compounds coupled to BODIPY FL were tested for uptake using 200 nM each conjugate and 5 minute incubation with immortalized T lymphocyte cell line, Jurkat cells. Mean fluorescent intensities (MFI). 1,000 cells sorted by FACS. Bars represent mean±SD. Results represent a single experiment done in duplicate.
Materials and methods: Jurkat cells have been previously shown to be defective in the expression of two lipid phosphatases, PTEN (phosphatase and tensin homologue) and SHIP (SH2-domain-containing inositol polyphosphate 5′ phosphatase). The biological implications of SHIP deficiency in T cells remain under evaluation, but the loss of PTEN leads to activation of the phosphatidylinositol 3-kinase (PI3K)-signalling pathway. See Abraham and Weiss, 2004. This activation of PI3K protein is also on NZM40 melanoma cell line, and represents a key mutation for its sustained proliferation. See Silva et al., 2017. For these experiments, Jurkat cells were diluted on RPMI media (supplemented with 10% FBS+1% penicillin-streptomycin) to afford 400 cells/μL. 2 μL of 100 μM stock solutions in DMSO from 138 and pantothenic acid/pantothenic acid derivatives coupled to BODIPY were diluted with 998 μL of RPMI media (supplemented with 10% FBS+1% penicillin-streptomycin) to afford 200 nM solution. 100,000 cells were dispensed to Eppendorf tubes, centrifuged for 1.5 min at 5000 rcf and the supernatant was removed. The cells then were incubated with 500 μL of solutions at 200 nM for 4.5 min and 37 °C. After the incubation time, cells were centrifuged for 1.5 minutes at 5000 rcf. Supernatant was removed and cell pellet re-suspended in 200 μL fresh RPMI media, transferred to 96 well-plate and run on FACS machine, approximately 1,000 cells analysed.

[4] = system: NZM40 (NRAS Q16H) melanoma cells; assay: FACS uptake of BODIPY FL conjugates, 200 nM, 5 min (Example 2)
Protocol: FIG. 2. Conjugate compounds coupled to BODIPY FL were tested for uptake using 200 nM each conjugate and 5 minute incubation with melanoma cell line NZM11 (BRAF V600E mutant metastatic melanoma), melanoma cell line NZM40 (NRAS Q16H mutant metastatic melanoma) and melanoma cell line NZM9 (BRAF and NRAS wildtype metastatic melanoma). Mean fluorescent intensities (MFI). 2,000 cells (NZM11), 1,000 cells (NZM40) and 500-1,000 cells (NZM9). Cells were sorted by FACS. Bars represent mean±SD. Results were from a single experiment done in triplicate.
NZM40 is an adherent cell line which was originally derived from a metastatic melanoma from a patient, in 2004. This human metastatic melanoma is identified with code CBA-1381 from Cell bank Australia. […] Ras is a superfamily of proteins implicated in cell growth, survival and differentiation. NRAS (neuroblastoma rat sarcoma) was the first oncogene recognized in melanoma and mutations in NRAS account for 20% of all melanomas. NRAS mutations primarily occur at position 61 and involve amino acid change from glutamine (Q) to arginine (R), lysine (K), leucine (L) or histidine (H). These mutations block NRAS into a GTP-bound state damaging its GTPase activity (FIG. 1). Patients are usually older (>55 years) with previous UV exposure. See Garcia-Alverez et al., 2021.
For screening, NZM11, NZM40 and NZM9 cells were suspended at […] dispensed into 96 well plates and left to settle for 48 hours. Then, 10 μL of 10 mM stock solutions in DMSO for the conjugates were diluted with HBSS to afford 400 nM solution. Next, 400 nM compounds and DMSO solutions were diluted 1:1 with MEMα media to afford 200 nM solutions. After 48 hours the media was removed from the 96 well plates and 200 μL of 200 nM conjugates solutions dispensed to each well (in triplicate) and incubated for 5 minutes at 37 °C. After 5 minutes, the media was removed and cells washed with PBS. Then, 100 μL of TrypLE trypsin (ThermoFisher Scientific) were added to each well and incubated for 5 minutes at 37 °C after which, 100 μL of MEMα media were added and samples were sorted through FACS biosort. The FACS results output were represented as the mean of the fluorescence intensities (in arbitrary units) measured for cells sorted in every sample.

[5] = system: NZM11 (BRAF V600E mutant metastatic melanoma) cells; assay: Sulforhodamine B (SRB) assay of viability / proliferation, auranofin conjugates (Example 8)
Protocol: FIG. 8: Effect of 136 and 137 (auranofin conjugates) on viability of NZM11 melanoma cells. Cells were incubated with 136 and 137 at 10 μM final concentration and kept at 37 °C for 48 hours. Pantothenic acid (PA), CJ-15,801, and biotin were tested at 200 μM final concentration. […] Two batches of auranofin were tested at 10 μM final concentration.
FIG. 9: The viability data from FIG. 8 was normalised to the treatment plate and DMSO control and plotted as a percentage of cell growth. Individual data points represent technical replicates. Curve indicates non-linear regression slope, which allows determination of IC50 values.
Materials and methods: NZM11 cells were cultured in MEMα media with an initial count of 1020 cells/μL. The cells were then diluted to get 25 cells per μL and 200 μL of this suspension (5000 cells per well), dispensed into 96 well plates and left to settle for 24 hours. 10 mM stock solutions of 136, 137, and auranofin were diluted with 1% FBS MEMα media to give 10 nM, 30 nM, 100 nM, 300 nM, 1 μM, 3 μM, 10 μM, 30 μM and 100 μM solutions. After 24 hours the media was removed from the 96 well plates. To individual wells 200 μL of each dilution were dispensed in triplicate for three groups (136, 137, and auranofin): 1% FBS MEMα media only (DMSO control), 10 nM, 30 nM, 100 nM, 300 nM, 1 μM, 3 μM, 10 μM, 30 μM and 100 μM. The cells were incubated at 37 °C, 5% 02 and 5% CO2 for 48 hours.
In order to test the potency of 136 and 137, the IC50 values were calculated for these auranofin conjugates. For analysis of the treatment plate (Tz) a SRB assay was utilised. For this assay, 50 μL of 50% (w/v) ice-cold trichloroacetic acid (TCA) was added to each well. To achieve this, 5 g of TCA was made up to 10 mL with milliQ H2O. This was cooled on ice. Incubation was carried out for 1 hour at 4 °C to fix cells. TCA and media were removed from cells. Five milliQ washes were carried out and the plate was left to air dry. Next, 50 μL of 0.4% SRB solution (prepared in 1% acetic acid) was added to each well and incubated for 10 minutes at room temperature. The SRB solution was removed and five milliQ washes were carried out. Then, 100 μL of 10 mM Tris solution was added to each well, and the dye was solubilised. Absorbance at 515 nm was read on plate reader. Data was normalized to Tz plate, as per NCI60 screening method (https://dtp.cancer.gov/discovery_development/nci-60/methodology.htm).

## CC1=CC(C)=[N+]2C1=Cc1ccc(CCCN=[N+]=[N-])n1[B-]2(F)F [3-azido BODIPY FL, 3-Azido[4,4-difluoro-5,7-dimethyl-4-bora-3a,4a-diaza-s-indacene-3-yl]propane, reference compound]
[1]; 1 hour
  times lower intensities than 124: 6 times
[1]; 3 hours
  times lower intensities than 124: 6 times
[1]; NZM11, time course
  uptake / intensities, in words: low uptake rate

## CC1=CC(C)=[N+]2C1=Cc1ccc(CCCn3cc(CCNC(=O)/C=C\NC(=O)[C@@H]4OC(C)(C)OCC4(C)C)nn3)n1[B-]2(F)F [Compound 129, (Z)—N-((((3-[4,4-Difluoro-5,7-dimethyl-4-bora-3a,4a-diaza-s-indacene-3-yl]propyl)-1H-1,2,3-triazol-4-yl)ethylamino)-3-oxoprop-1-enyl)-2,2,5,5-tetramethyl-1,3-dioxane-4-carboxamide]
[2]
  uptake (fluorescent intensities): higher uptakes than their diol counterparts
[3]
  uptake / targeting: showed targeting
[4]
  uptake (fluorescence intensities): showed selectivity

## CC1=CC(C)=[N+]2C1=Cc1ccc(CCCn3cc(CCNC(=O)/C=C\NC(=O)[C@@H](O)C(C)(C)CO)nn3)n1[B-]2(F)F [Compound 130, (Z)—N-((((3-[4,4-Difluoro-5,7-dimethyl-4-bora-3a,4a-diaza-s-indacene-3-yl]propyl)-1H-1,2,3-triazol-4-yl)ethylamino)-3-oxoprop-1-enyl)-2,4-dihydroxy-3,3-dimethylbutanamide]
[4]
  uptake (fluorescence intensities): showed selectivity

## (R,E)-((4-(3-(2,4-dihydroxy-3,3-dimethylbutanamido)acrylamido)phenyl)thio)(triethyl-phosphaneyl) Gold (I) [Compound 137]
[5]; 10 μM, 48 hours
  reduction on viability, as compared to auranofin itself: more than 95%
[5]; 138 20 times more concentrated (200 μM)
  effect of CJ-15,801/138 on activity: not affected
[5]; NZM11, 48 hours
  IC50 relative to auranofin: five times higher than auranofin
[5]; NZM11, 48 hours, SRB assay
  IC50: 2940 nM and ~2800 nM
[5]; vitamins 20 times more concentrated (200 μM)
  effect of biotin and pantothenic acid on activity: not affected
